Experimental data taken from ChEMBL document CHEMBL3393036, “Tetra-substituted pyridinylimidazoles as dual inhibitors of p38α mitogen-activated protein kinase and c-Jun N-terminal kinase 3 for potential treatment of neurodegenerative diseases” (J Med Chem, 2015).

target: MAP kinase-activated protein kinase 2 (Homo sapiens) (UniProt P49137); assay: Inhibition of MK2 (unknown origin) at 5.5 uM by Caliper Mobility Shift Assay
Sequence (P49137 whole entry, looked up): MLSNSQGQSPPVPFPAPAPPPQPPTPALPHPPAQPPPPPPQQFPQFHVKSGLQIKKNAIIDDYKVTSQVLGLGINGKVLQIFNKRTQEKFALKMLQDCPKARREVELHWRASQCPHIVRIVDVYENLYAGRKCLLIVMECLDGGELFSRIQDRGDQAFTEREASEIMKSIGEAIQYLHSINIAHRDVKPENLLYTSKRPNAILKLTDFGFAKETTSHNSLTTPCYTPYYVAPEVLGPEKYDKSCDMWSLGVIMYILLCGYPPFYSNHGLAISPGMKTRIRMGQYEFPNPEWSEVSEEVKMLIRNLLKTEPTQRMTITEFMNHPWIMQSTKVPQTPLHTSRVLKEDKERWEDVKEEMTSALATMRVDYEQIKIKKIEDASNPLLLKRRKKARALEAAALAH

Structure (SMILES)	inhibition
CC(=O)Nc1cc(-c2c(-c3ccc(F)cc3)nc(S/C=C\C(=O)O)n2C2CC2)ccn1	< 50%
CC(=O)Nc1cc(-c2c(-c3ccc(F)cc3)nc(Sc3cccc(I)n3)n2C2CCCCC2)ccn1	< 50%

target: Serine/threonine-protein kinase WNK1 (Homo sapiens) (UniProt Q9H4A3); assay: Inhibition of WNK1 (unknown origin) at 5.5 uM by Caliper Mobility Shift Assay
Sequence (Q9H4A3 whole entry, looked up): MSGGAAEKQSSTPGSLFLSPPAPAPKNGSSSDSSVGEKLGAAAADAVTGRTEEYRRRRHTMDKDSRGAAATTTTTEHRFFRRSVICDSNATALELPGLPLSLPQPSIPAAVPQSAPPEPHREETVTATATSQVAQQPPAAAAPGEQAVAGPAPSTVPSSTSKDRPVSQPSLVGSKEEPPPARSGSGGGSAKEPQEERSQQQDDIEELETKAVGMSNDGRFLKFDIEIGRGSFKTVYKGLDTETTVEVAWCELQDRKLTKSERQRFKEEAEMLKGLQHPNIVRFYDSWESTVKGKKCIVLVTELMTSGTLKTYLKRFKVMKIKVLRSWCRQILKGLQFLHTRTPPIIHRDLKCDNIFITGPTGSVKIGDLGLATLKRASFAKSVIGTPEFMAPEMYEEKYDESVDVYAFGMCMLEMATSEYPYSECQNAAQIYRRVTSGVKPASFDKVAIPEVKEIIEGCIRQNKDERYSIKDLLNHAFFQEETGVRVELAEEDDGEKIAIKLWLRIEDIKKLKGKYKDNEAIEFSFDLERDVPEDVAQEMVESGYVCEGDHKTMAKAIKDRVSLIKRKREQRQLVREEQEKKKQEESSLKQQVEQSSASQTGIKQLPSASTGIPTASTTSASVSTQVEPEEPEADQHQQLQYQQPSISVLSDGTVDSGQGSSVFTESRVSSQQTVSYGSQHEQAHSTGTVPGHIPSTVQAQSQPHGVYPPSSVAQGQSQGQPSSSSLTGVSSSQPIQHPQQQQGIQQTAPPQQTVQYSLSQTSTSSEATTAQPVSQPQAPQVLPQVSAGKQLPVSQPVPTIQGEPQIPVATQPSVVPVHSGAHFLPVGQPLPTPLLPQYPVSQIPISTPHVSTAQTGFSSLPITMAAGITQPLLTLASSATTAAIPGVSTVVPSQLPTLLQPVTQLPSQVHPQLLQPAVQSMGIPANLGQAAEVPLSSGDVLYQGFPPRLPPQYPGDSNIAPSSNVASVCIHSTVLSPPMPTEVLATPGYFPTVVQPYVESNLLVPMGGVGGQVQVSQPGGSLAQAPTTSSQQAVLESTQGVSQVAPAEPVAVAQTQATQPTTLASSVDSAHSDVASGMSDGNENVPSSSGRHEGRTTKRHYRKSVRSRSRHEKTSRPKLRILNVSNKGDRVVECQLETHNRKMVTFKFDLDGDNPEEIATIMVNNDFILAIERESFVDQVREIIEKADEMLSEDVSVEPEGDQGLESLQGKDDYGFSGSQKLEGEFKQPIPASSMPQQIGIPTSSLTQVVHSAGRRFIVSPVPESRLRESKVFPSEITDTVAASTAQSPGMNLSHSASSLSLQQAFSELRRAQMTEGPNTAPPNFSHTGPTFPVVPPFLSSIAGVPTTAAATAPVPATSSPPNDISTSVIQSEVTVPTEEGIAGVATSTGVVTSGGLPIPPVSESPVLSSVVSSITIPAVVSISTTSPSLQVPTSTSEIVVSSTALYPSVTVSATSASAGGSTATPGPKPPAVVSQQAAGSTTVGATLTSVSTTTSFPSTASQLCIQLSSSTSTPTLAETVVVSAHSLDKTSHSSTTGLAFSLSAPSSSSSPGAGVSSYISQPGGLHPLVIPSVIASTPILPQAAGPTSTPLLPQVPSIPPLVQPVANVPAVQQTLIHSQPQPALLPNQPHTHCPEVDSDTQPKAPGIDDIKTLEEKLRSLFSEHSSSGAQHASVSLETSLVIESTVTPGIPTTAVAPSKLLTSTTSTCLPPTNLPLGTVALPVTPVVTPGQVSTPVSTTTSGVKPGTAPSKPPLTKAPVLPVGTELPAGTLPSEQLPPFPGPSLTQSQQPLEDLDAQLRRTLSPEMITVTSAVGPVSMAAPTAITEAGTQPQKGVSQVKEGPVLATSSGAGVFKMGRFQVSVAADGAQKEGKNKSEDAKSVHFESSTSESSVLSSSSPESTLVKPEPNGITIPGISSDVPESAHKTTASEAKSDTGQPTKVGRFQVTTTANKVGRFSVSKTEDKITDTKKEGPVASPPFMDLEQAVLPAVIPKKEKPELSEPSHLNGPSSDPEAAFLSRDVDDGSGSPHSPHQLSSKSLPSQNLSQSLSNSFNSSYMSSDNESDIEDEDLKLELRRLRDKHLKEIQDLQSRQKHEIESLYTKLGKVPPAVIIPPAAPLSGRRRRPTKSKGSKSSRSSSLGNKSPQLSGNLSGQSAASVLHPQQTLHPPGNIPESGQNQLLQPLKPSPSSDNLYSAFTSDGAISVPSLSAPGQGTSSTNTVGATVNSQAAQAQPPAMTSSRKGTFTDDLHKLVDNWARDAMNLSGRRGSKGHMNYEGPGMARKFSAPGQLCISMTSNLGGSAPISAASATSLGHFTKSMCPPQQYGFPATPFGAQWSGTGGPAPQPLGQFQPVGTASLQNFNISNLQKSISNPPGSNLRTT

Structure (SMILES)	inhibition
CC(=O)Nc1cc(-c2c(-c3ccc(F)cc3)nc(S/C=C\C(=O)O)n2C2CC2)ccn1	< 50%
CC(=O)Nc1cc(-c2c(-c3ccc(F)cc3)nc(Sc3cccc(I)n3)n2C2CCCCC2)ccn1	< 50%

target: T1, TGF-beta-activated kinase 1 and MAP3K7-binding protein 1 (Homo sapiens) (UniProt Q15750); assay: Inhibition of MAP3K7-TAB1 (unknown origin) at 5.5 uM by Caliper Mobility Shift Assay
T1 sequence (whole entry): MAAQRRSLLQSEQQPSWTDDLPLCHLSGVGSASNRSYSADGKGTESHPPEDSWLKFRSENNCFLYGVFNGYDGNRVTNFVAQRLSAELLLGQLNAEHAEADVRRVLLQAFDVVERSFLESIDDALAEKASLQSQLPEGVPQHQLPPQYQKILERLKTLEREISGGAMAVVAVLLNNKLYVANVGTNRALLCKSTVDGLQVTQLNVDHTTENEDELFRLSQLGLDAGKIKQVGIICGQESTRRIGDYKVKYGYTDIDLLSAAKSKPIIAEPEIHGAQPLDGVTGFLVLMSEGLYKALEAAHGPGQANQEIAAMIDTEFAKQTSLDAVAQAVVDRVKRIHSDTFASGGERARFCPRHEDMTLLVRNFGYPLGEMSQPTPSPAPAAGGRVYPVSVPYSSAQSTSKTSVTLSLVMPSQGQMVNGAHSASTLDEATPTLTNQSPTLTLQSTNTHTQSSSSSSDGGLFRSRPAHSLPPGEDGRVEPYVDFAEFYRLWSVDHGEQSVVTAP

Structure (SMILES)	inhibition
CC(=O)Nc1cc(-c2c(-c3ccc(F)cc3)nc(S/C=C\C(=O)O)n2C2CC2)ccn1	< 50%
CC(=O)Nc1cc(-c2c(-c3ccc(F)cc3)nc(Sc3cccc(I)n3)n2C2CCCCC2)ccn1	< 50%

target: Casein kinase I isoform gamma-3 (Homo sapiens) (UniProt Q9Y6M4); assay: Inhibition of CSNK1G3 (CK1) (unknown origin) at 5.5 uM by Caliper Mobility Shift Assay

Structure (SMILES)	inhibition
CC(=O)Nc1cc(-c2c(-c3ccc(F)cc3)nc(S/C=C\C(=O)O)n2C2CC2)ccn1	< 50%
CC(=O)Nc1cc(-c2c(-c3ccc(F)cc3)nc(Sc3cccc(I)n3)n2C2CCCCC2)ccn1	< 50%

target: Protein kinase C theta type (Homo sapiens) (UniProt Q04759); assay: Inhibition of PRKCQ (unknown origin) at 5.5 uM by Caliper Mobility Shift Assay

Structure (SMILES)	inhibition
CC(=O)Nc1cc(-c2c(-c3ccc(F)cc3)nc(S/C=C\C(=O)O)n2C2CC2)ccn1	< 50%
CC(=O)Nc1cc(-c2c(-c3ccc(F)cc3)nc(Sc3cccc(I)n3)n2C2CCCCC2)ccn1	< 50%

target: Tyrosine-protein kinase SYK (Homo sapiens) (UniProt P43405); assay: Inhibition of SYK (unknown origin) at 5.5 uM by Caliper Mobility Shift Assay

Structure (SMILES)	inhibition
CC(=O)Nc1cc(-c2c(-c3ccc(F)cc3)nc(S/C=C\C(=O)O)n2C2CC2)ccn1	< 50%
CC(=O)Nc1cc(-c2c(-c3ccc(F)cc3)nc(Sc3cccc(I)n3)n2C2CCCCC2)ccn1	< 50%

target: Tyrosine-protein kinase BTK (Homo sapiens) (UniProt Q06187); assay: Inhibition of BTK (unknown origin) at 5.5 uM by Caliper Mobility Shift Assay

Structure (SMILES)	inhibition
CC(=O)Nc1cc(-c2c(-c3ccc(F)cc3)nc(S/C=C\C(=O)O)n2C2CC2)ccn1	< 50%
CC(=O)Nc1cc(-c2c(-c3ccc(F)cc3)nc(Sc3cccc(I)n3)n2C2CCCCC2)ccn1	< 50%

target: T2, Ephrin type-B receptor 4 (Homo sapiens) (UniProt P54760); assay: Inhibition of EPHB4 (unknown origin) at 5.5 uM by Caliper Mobility Shift Assay
T2 sequence (whole entry): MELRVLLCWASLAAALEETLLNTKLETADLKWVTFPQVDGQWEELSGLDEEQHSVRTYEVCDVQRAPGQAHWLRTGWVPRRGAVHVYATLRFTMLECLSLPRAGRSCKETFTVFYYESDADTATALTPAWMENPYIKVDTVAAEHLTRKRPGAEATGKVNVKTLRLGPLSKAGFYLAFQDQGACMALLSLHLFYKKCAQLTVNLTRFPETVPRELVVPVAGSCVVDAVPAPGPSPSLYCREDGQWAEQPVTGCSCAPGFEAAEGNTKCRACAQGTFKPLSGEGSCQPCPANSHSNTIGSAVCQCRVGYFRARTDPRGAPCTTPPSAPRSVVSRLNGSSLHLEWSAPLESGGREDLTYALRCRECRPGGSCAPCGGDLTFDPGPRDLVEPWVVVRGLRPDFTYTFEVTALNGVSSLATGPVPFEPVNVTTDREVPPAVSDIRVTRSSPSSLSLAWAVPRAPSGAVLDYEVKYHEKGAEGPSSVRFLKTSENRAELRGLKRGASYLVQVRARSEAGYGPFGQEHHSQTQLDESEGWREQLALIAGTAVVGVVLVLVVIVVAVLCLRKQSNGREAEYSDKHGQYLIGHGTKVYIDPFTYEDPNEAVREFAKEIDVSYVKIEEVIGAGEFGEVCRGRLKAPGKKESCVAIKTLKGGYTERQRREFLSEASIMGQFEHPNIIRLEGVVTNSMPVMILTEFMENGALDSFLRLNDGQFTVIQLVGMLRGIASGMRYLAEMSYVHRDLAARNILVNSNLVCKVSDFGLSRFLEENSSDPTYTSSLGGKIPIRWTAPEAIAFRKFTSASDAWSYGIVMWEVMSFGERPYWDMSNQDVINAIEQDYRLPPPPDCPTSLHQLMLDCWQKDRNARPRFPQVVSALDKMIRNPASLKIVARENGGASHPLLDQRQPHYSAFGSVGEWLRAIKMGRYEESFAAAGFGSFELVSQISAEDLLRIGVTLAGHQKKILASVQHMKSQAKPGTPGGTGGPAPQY

Structure (SMILES)	inhibition
CC(=O)Nc1cc(-c2c(-c3ccc(F)cc3)nc(S/C=C\C(=O)O)n2C2CC2)ccn1	< 50%
CC(=O)Nc1cc(-c2c(-c3ccc(F)cc3)nc(Sc3cccc(I)n3)n2C2CCCCC2)ccn1	< 50%

target: Mitogen-activated protein kinase 9 (Homo sapiens) (UniProt P45984); assay: Inhibition of JNK2 (unknown origin) at 5.5 uM by Caliper Mobility Shift Assay
Sequence (P45984 whole entry, looked up): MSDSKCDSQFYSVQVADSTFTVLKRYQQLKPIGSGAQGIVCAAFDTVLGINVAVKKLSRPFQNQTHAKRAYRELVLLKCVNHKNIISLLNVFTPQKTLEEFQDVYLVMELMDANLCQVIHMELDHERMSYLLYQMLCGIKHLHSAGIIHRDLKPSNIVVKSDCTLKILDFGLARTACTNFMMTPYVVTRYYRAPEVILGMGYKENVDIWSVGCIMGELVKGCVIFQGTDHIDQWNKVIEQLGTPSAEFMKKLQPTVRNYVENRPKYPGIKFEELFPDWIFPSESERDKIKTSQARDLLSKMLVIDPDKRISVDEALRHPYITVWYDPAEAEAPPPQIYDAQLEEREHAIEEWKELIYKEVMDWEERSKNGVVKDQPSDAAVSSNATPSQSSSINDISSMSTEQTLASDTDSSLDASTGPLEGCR

Structure (SMILES)	inhibition
CC(=O)Nc1cc(-c2c(-c3ccc(F)cc3)nc(S/C=C\C(=O)O)n2C2CC2)ccn1	< 50%
CC(=O)Nc1cc(-c2c(-c3ccc(F)cc3)nc(Sc3cccc(I)n3)n2C2CCCCC2)ccn1	< 50%

target: Mitogen-activated protein kinase kinase kinase 8 (Homo sapiens) (UniProt P41279); assay: Inhibition of MAP3K8 (unknown origin) at 5.5 uM by Caliper Mobility Shift Assay

Structure (SMILES)	inhibition
CC(=O)Nc1cc(-c2c(-c3ccc(F)cc3)nc(S/C=C\C(=O)O)n2C2CC2)ccn1	< 50%
CC(=O)Nc1cc(-c2c(-c3ccc(F)cc3)nc(Sc3cccc(I)n3)n2C2CCCCC2)ccn1	< 50%

species on record: Homo sapiens; assay: Selectivity ratio of IC50 for JNK3 (unknown origin) to IC50 for p38alpha (unknown origin)

Structure (SMILES)	Ratio IC50
CC(=O)Nc1cc(-c2c(-c3ccc(F)cc3)nc(S/C=C\C(=O)O)n2C2CC2)ccn1	0.7
CC(=O)Nc1cc(-c2c(-c3ccc(F)cc3)nc(Sc3cccc(I)n3)n2C2CCCCC2)ccn1	4.3

target: Mitogen-activated protein kinase 14 (Homo sapiens, UniProt Q16539); assay: Inhibition of p38alpha (unknown origin) assessed as phosphorylation of ATF-2 by ELISA

Structure (SMILES)	IC50
CC(=O)Nc1cc(-c2c(-c3ccc(F)cc3)nc(S/C=C\C(=O)O)n2C2CC2)ccn1	123 nM
CC(=O)Nc1cc(-c2c(-c3ccc(F)cc3)nc(Sc3cccc(I)n3)n2C2CCCCC2)ccn1	356 nM

target: Tyrosine-protein kinase Lyn (Homo sapiens) (UniProt P07948); assay: Inhibition of LYN (unknown origin) at 5.5 uM by Caliper Mobility Shift Assay

Structure (SMILES)	inhibition
CC(=O)Nc1cc(-c2c(-c3ccc(F)cc3)nc(S/C=C\C(=O)O)n2C2CC2)ccn1	< 50%
CC(=O)Nc1cc(-c2c(-c3ccc(F)cc3)nc(Sc3cccc(I)n3)n2C2CCCCC2)ccn1	< 50%

target: Proto-oncogene tyrosine-protein kinase Src (Homo sapiens) (UniProt P12931); assay: Inhibition of cSRC (unknown origin) at 5.5 uM by Caliper Mobility Shift Assay
Sequence (P12931 2-536 limits assumed): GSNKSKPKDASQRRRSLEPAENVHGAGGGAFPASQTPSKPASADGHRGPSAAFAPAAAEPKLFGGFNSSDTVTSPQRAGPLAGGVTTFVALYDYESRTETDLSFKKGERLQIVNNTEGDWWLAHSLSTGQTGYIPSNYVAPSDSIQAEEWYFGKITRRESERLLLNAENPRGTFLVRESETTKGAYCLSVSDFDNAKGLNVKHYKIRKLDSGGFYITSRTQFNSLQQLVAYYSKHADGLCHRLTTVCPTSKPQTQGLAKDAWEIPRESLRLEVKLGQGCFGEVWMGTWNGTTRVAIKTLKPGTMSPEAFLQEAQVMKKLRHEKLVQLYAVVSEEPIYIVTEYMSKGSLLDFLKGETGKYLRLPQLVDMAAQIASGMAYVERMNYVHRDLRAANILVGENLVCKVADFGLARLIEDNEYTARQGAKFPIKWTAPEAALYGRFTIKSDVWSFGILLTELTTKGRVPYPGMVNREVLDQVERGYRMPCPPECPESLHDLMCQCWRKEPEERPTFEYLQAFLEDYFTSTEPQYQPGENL

Structure (SMILES)	inhibition
CC(=O)Nc1cc(-c2c(-c3ccc(F)cc3)nc(S/C=C\C(=O)O)n2C2CC2)ccn1	< 50%
CC(=O)Nc1cc(-c2c(-c3ccc(F)cc3)nc(Sc3cccc(I)n3)n2C2CCCCC2)ccn1	< 50%

target: Serine/threonine-protein kinase PAK 2 (Homo sapiens) (UniProt Q13177); assay: Inhibition of PAK2 (unknown origin) at 5.5 uM by Caliper Mobility Shift Assay

Structure (SMILES)	inhibition
CC(=O)Nc1cc(-c2c(-c3ccc(F)cc3)nc(S/C=C\C(=O)O)n2C2CC2)ccn1	< 50%
CC(=O)Nc1cc(-c2c(-c3ccc(F)cc3)nc(Sc3cccc(I)n3)n2C2CCCCC2)ccn1	< 50%

target: Rho-associated protein kinase 2 (Homo sapiens) (UniProt O75116); assay: Inhibition of ROCK2 (unknown origin) at 5.5 uM by Caliper Mobility Shift Assay

Structure (SMILES)	inhibition
CC(=O)Nc1cc(-c2c(-c3ccc(F)cc3)nc(S/C=C\C(=O)O)n2C2CC2)ccn1	< 50%
CC(=O)Nc1cc(-c2c(-c3ccc(F)cc3)nc(Sc3cccc(I)n3)n2C2CCCCC2)ccn1	< 50%

target: Vascular endothelial growth factor receptor 2 (Homo sapiens) (UniProt P35968); assay: Inhibition of KDR (unknown origin) at 5.5 uM by Caliper Mobility Shift Assay
Sequence (P35968 whole entry): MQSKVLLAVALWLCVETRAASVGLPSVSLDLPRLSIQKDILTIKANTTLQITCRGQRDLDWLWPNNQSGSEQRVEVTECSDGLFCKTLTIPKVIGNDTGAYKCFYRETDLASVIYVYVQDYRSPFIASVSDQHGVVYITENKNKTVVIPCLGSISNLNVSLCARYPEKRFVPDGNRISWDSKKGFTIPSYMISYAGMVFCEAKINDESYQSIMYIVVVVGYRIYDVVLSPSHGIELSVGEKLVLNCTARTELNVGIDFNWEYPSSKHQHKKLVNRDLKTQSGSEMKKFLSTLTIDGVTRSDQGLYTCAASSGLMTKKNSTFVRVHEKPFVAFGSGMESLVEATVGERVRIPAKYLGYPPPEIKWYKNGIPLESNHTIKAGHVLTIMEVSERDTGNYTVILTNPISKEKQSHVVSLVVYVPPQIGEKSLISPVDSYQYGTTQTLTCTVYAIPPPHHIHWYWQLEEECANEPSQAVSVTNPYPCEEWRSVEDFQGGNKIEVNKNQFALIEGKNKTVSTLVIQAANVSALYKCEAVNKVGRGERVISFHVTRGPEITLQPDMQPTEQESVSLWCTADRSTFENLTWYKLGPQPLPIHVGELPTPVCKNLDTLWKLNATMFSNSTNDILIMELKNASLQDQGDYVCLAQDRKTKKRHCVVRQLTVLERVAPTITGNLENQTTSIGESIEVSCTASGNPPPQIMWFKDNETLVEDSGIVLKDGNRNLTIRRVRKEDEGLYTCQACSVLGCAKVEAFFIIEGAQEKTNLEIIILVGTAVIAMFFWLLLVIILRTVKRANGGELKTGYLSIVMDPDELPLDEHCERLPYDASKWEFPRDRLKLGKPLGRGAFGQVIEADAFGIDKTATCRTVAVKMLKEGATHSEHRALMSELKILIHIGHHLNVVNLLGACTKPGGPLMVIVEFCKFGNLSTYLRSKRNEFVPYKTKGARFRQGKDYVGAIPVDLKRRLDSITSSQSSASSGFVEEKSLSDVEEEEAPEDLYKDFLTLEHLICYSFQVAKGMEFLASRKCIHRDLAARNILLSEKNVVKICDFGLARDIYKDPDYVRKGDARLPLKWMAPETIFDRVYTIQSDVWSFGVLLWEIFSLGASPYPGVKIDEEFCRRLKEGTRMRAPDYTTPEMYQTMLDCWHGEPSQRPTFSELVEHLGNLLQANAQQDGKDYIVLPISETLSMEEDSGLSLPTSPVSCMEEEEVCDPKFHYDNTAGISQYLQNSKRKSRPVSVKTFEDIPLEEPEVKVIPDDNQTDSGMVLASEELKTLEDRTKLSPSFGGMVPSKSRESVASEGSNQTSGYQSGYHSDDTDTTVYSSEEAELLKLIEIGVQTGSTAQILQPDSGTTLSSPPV

Structure (SMILES)	inhibition
CC(=O)Nc1cc(-c2c(-c3ccc(F)cc3)nc(S/C=C\C(=O)O)n2C2CC2)ccn1	< 50%
CC(=O)Nc1cc(-c2c(-c3ccc(F)cc3)nc(Sc3cccc(I)n3)n2C2CCCCC2)ccn1	< 50%

target: Fibroblast growth factor receptor 2 (Homo sapiens) (UniProt P21802); assay: Inhibition of FGFR2 (unknown origin) at 5.5 uM by Caliper Mobility Shift Assay

Structure (SMILES)	inhibition
CC(=O)Nc1cc(-c2c(-c3ccc(F)cc3)nc(S/C=C\C(=O)O)n2C2CC2)ccn1	< 50%
CC(=O)Nc1cc(-c2c(-c3ccc(F)cc3)nc(Sc3cccc(I)n3)n2C2CCCCC2)ccn1	< 50%

target: Mitogen-activated protein kinase 8 (Homo sapiens) (UniProt P45983); assay: Inhibition of JNK1 (unknown origin) at 5.5 uM by Caliper Mobility Shift Assay

Structure (SMILES)	inhibition
CC(=O)Nc1cc(-c2c(-c3ccc(F)cc3)nc(S/C=C\C(=O)O)n2C2CC2)ccn1	< 50%
CC(=O)Nc1cc(-c2c(-c3ccc(F)cc3)nc(Sc3cccc(I)n3)n2C2CCCCC2)ccn1	< 50%

target: Tyrosine-protein kinase JAK2 (Homo sapiens) (UniProt O60674); assay: Inhibition of JAK2 (unknown origin) at 5.5 uM by Caliper Mobility Shift Assay

Structure (SMILES)	inhibition
CC(=O)Nc1cc(-c2c(-c3ccc(F)cc3)nc(S/C=C\C(=O)O)n2C2CC2)ccn1	< 50%
CC(=O)Nc1cc(-c2c(-c3ccc(F)cc3)nc(Sc3cccc(I)n3)n2C2CCCCC2)ccn1	< 50%
